From patent publication US9187458B2, “Cyanoquinoline derivatives” (Tianjin Hemay Bio-Tech Co., LTD., priority 2010, dated 2015) come the findings set out here.

Assay [1] concerns BxPc-3 cells. The assay can be described thus: BxPc-3 Cell Growth Inhibition Test (MTT Assay). The format is cell-based. Conditions: Homo sapiens, 72 h incubation. The protocol: BxPc-3 Cell Growth Inhibition Test (MTT Assay) Cell strains: BxPC-3 (human pancreatic cancer cell strains); Culture medium: 90% RPMI-1640+10% FBS; 1. A plate (10 cm) of cells in logarithmic growth phase normally cultured was collected; 2. The culture solution was sucked out. […] The plate was washed with 5 ml of PBS 1-2 times; 3. PBS was sucked out. 1.5 ml of 0.25% pancreatin was added to infiltrate the cells for 1 min; 4. The pancreatin was sucked out. The culture plate was placed in an incubator. Digestion was carried out for about 5 min at 37° C.; 5. 4.5 ml of complete culture solution was added to the culture plate to stop the digestion. The cells were carefully scoured with micropipette (1 ml) to give a uniform cell suspension. The suspension was implanted into a 96-well cell culture plate by 5000 cells/100 μl per well. The culture plate was incubated overnight under 5% CO2 at 37° C. In day 2, 100 μl of culture solution comprising a compound was added in each well, and further incubated for 72 h under 5% CO2 at 37° C. 6. The culture solution was sucked out; 7. 100 μl of serum-free culture solution containing 0.5 mg/ml MTT was added in each well, and incubated for 3 h; 8. The culture solution was carefully sucked out; 9. 100 μl of DMSO was added in each well and vibrated to dissolve; 10. OD values were determined at […]. 1. Calculation of Relative Inhibition Ratio The inhibition ratio of a compound on cell growth=(PC−n)/(PC−NC)×100% IC50: Concentration of a compound where inhibition ratio was 50%. IC50 values were fitted with Origin7.5.

For assay [2], the system named is BT-474 cells. The assay can be described thus: BT-474 Cell Growth Inhibition Test (SRB Assay). It is filed as cell-based, human. Conditions: Homo sapiens, 70 h incubation. The essentials: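 Human breast tumour BT-474 cells (1×10^5/ml seeding, overnight) exposed to compound 70 h at 37 °C, 5% CO2; TCA-fixed, SRB-stained, dye dissolved in 10 mM Tris and OD read at 570 nm. Inhibition ratio = (PC−n)/(PC−NC)×100%; IC50 is the concentration giving 50% inhibition, from fitted curves.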

In assay [3] the test system is SK-OV-3 cells. In words: SK-OV-3 Cell Growth Inhibition Test (MTT Assay). The format is cell-based. Conditions: Homo sapiens, 72 h incubation. The protocol:
SK-OV-3 Cell Growth Inhibition Test (MTT Assay)
Cell strains: SK-OV-3 (human ovarian cancer cell strains);
Culture medium: 90% McCoy's 5A+10% FBS;
(§1) 1. A plate (10 cm) of cells in logarithmic growth phase normally cultured was collected;
(§2) 2. The culture solution was sucked out. The plate was washed with 5 ml of PBS 1-2 times;
(§3) 3. PBS was sucked out. 1.5 ml of 0.25% pancreatin was added to infiltrate the cells for 1 min;
4. The pancreatin was sucked out. The culture plate was placed in an incubator. Digestion was carried out for about 5 min at 37° C.;
5. 4.5 ml of complete culture solution was added to the culture plate to stop the digestion.T the cells were carefully scoured with micropipette (1 ml) to give a uniform cell suspension. The suspension was implanted into a 96-well cell culture disc by 4000 cells/100 μl per well. The culture plate was incubated overnight under 5% CO2 at 37° C. In day 2, 100 μl of culture solution comprising a compound was added in each well, and further incubated for 72 h under 5% CO2 at 37° C.
(§4) 6. The culture solution was sucked out;
7. 100 μl of serum-free culture solution containing 0.5 mg/ml MTT was added in each well, and incubated for 3 h;
(§5) 8. The culture solution was carefully sucked out;
9. 100 μl of DMSO was added in each well and vibrated to dissolve;
(§6) 10. OD values were determined at 490 nM.
(§7) 1. Calculation of Relative Inhibition Ratio The inhibition ratio of a compound on cell growth=(PC−n)/(PC−NC)×100%
(§8) IC50: Concentration of a compound where inhibition ratio was 50%. IC50 values were fitted with Origin7.5.

The subject of assay [4] is MDA-MB-453 cells. The assay can be described thus: MDA-MB-453 Cell Growth Inhibition Test (SRB Assay). It is filed as cell-based. The settings on record: Homo sapiens, 72 h incubation. The protocol:
MDA-MB-453 Cell Growth Inhibition Test (SRB Assay)
Cell strains: MDA-MB-453 (human breast cancer cell strains);
SRB: 0.4% (w/v) working solution was formulated with 1% glacial acetic acid, reserved at 4° C.; antitumor compounds; DMSO
Culture medium: 90% L15+10% FBS;
as §1
2. The culture solution was sucked out. The plate was washed with 5 mL of PBS 1-2 times;
3. 1.5 mL of 0.25% pancreatin was added to the plate to infiltrate the cells;
4. The pancreatin was sucked out. The culture plate was placed in an incubator. Digestion was carried out for about 3 min at 37° C.;
5. 4 mL of complete culture solution was added to the culture plate to stop the digestion. The cells were carefully scoured with micropipette (1 ml) to give a uniform single cell suspension. The suspension was implanted into a 96-well cell culture plate by 7000 cells/100 μl per well. The culture plate was incubated overnight under 5% CO2 at 37° C. In day 2, 100 μl of culture solution comprising a compound was added in each well, and further incubated for 72 h under 5% CO2 at 37° C.;
6. The culture solution was sucked out. 100 uL of TCA fixed cells which were diluted to 10% were added to each well. The plate was kept in a refrigerator for 1 h at 4° C.
7. TCA stationary liquid was sucked out. […]
13. OD values were determined at […]. […]

The test system of assay [5] is NCI-H358 cells. In words: NCI-H358 Cell Growth Inhibition Test (MTT Assay). The format is cell-based. The settings on record: Homo sapiens, 72 h incubation. The protocol: NCI-H358 Cell Growth Inhibition Test (MTT Assay)
Cell strains: NCI-H358 (human non-small cell lung cancer cell strains);
as §1, §2, §3
4. The culture plate was placed in an incubator. Digestion was carried out for about 5 min at 37° C.;
5. 3 ml of complete culture solution was added to the culture plate to stop the digestion. Tthe cells were carefully scoured with micropipette (1 ml) to give a uniform cell suspension. The suspension was implanted into a 96-well cell culture plate by 10000 cells/100 […] per well. The culture plate was incubated overnight under 5% CO2 at 37° C. In day 2, 100 μA of culture solution comprising a compound was added in each well, and further incubated for 72 h under 5% CO2 at 37° C.
as §4
7. 100 μA of serum-free culture solution containing 0.5 mg/ml MTT was added in each well, and incubated for 3 h;
as §5
9. 100 μA of DMSO was added in each well and vibrated to dissolve;
as §6, §7, §8

For the compound `CN1CCC(Oc2cc3ncc(C#N)c(Nc4ccc(Oc5ccccc5)nc4)c3cc2NC(=O)/C=C2/CCNC2)CC1` [Example 131, (E/Z)-N-(3-CYANO-7-(1-METHYLPIPERIDIN-4-YL-OXY)-4-(6-(PHENOXYPYRIDIN-3-YL-AMINO)QUINOLIN-6-YL)-2-(PYRROLIDIN-3-YLIDENE)ACETAMIDE], the IC50 in assay [1] is 306 nM.
For the compound `C#Cc1cccc(Nc2c(C#N)cnc3cc(O[C@H]4CCOC4)c(NC(=O)/C=C/CN(C)CCOC)cc23)c1` [Example 189, (S,E)-N-(3-CYANO-4-(3-ETHYNYLPHENYLAMINO)-7-(TETRAHYDROFURAN-3-YL-OXY)QUINOLIN-6-YL)-4-(N-METHYLMETHOXYETHYLAMINO)-BUT-2-ENAMIDE], the half-maximal inhibitory concentration (IC50) in assay [2] was 108 nM; in assay [3] it was 312 nM; in assay [4], 523 nM. For the same compound, in assay [2] (BT-474, 70 h, compound 1 μM, read-out: Growth Inhibition Ratio (%)), the inhibition at 1 µM was 85%.
On to `C#Cc1cccc(Nc2c(C#N)cnc3cc(O[C@H]4CCOC4)c(NC(=O)/C=C/CN(CCO)CCO)cc23)c1` [Example 188, (S,E)-N-(3-CYANO-4-(3-ETHYNYLPHENYLAMINO)-7-(TETRAHYDROFURAN-3-YL-OXY)QUINOLIN-6-YL)-4-(DIETHANOLAMINO)-BUT-2-ENAMIDE], for which the IC50 in assay [5] is 110 nM.

The IC50 is the midpoint of a concentration-inhibition curve. A higher IC50 goes with lower potency.
